Common to all, as to assay type: cell-based
One assay addresses T1, hGIPR (Homo sapiens, UniProt P48546).
T1 construct: expressed in transfected cells
T1 sequence (P48546 22-466): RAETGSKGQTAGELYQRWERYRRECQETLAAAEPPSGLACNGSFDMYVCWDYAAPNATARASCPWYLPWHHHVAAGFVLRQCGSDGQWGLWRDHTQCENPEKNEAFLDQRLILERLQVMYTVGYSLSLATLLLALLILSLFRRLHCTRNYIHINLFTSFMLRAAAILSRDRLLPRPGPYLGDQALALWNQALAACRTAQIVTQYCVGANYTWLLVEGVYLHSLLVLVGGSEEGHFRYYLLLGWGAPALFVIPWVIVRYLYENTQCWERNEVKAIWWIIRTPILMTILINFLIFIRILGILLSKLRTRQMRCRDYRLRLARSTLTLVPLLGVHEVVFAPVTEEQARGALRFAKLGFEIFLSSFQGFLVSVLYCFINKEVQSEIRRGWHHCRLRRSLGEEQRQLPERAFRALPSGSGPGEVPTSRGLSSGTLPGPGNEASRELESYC
Put plainly: Functional cAMP formation (HTRF) in HEK-293 clonal cells expressing hGIPR, 0.1% bovine casein, without or with 1.0% human serum albumin. The conditions noted are these: 37° C.; for Emax: HEK293, cAMP, percent of maximal response to GIP(1-42)NH2, read-out: hGIPR Emax, % ± SEM. A digest of the protocol:
(§1)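 Cells were stimulated with peptide for 30 min at 37° C, then lysed in buffer carrying cAMP-d2 and anti-cAMP Eu3+-cryptate for a competitive HTRF read after at least 60 min at room temperature. The 665/620 nm ratio was converted to nM cAMP against a standard curve.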

The next assay addresses hGLP-1R (Homo sapiens, UniProt P43220). Kind of assay: Functional cAMP formation (HTRF) in HEK-293 clonal cells expressing hGLP-1R, 0.1% bovine casein, without or with 1.0% human serum albumin. The arrangement: expressed in transfected cells. The conditions noted are these: 37° C.; for Emax: HEK293, cAMP, percent of maximal response to GLP-1(7-36)NH2, read-out: hGLP-1R Emax, % ± SEM; for EC50: cAMP, 0.1% bovine casein (no human serum albumin), geometric mean, read-out: hGLP-1R EC50, nM (SEM, n). A digest of the protocol:
as §1

A further assay has as its target T2, hGCGR (Homo sapiens, UniProt P47871).
T2 construct: expressed in transfected cells
Put plainly: Functional cAMP formation (HTRF) in HEK-293 clonal cells expressing hGCGR, 0.1% bovine casein, without or with 1.0% human serum albumin. The conditions noted are these: cAMP, 37° C., read-out: hGCGR EC50, nM (SEM, n). The gist of the method: as §1
(Cyclic AMP is a second messenger, typically raised through Gs and lowered through Gi signalling.)

The mark [1] stands for this setting: 0.1% bovine casein and 1.0% human serum albumin.
[2] abbreviates: 0.1% bovine casein, arithmetic mean.
[3] abbreviates: 0.1% bovine casein (no human serum albumin), geometric mean.
Where [4] appears, read: 0.1% bovine casein and 1.0% human serum albumin, geometric mean (SEM, n).

The structures appear in SMILES notation. Like-named read-outs stand apart in the source and are kept apart here.

The source of these data is US20230265151A1, “GIP/GLP1 CO-AGONIST COMPOUNDS” (priority 2020, published 2023).

The term Emax denotes the size of the effect at its maximum, as opposed to the concentration needed. What is called EC50 is the concentration at which the effect is half-maximal.

Chain of hGLP-1R (P43220 24-463): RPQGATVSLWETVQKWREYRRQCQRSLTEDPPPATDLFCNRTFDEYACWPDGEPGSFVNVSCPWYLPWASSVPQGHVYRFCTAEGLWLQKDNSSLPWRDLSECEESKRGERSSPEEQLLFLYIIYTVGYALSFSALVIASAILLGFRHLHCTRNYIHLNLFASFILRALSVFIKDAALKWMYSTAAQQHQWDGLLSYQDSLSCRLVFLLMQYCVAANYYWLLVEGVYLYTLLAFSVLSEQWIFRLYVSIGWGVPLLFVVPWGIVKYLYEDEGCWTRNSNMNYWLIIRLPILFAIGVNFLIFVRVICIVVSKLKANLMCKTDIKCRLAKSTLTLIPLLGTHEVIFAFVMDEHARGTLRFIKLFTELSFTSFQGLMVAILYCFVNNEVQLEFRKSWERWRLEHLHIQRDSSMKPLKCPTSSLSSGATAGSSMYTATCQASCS
T2 sequence (P47871 26-477): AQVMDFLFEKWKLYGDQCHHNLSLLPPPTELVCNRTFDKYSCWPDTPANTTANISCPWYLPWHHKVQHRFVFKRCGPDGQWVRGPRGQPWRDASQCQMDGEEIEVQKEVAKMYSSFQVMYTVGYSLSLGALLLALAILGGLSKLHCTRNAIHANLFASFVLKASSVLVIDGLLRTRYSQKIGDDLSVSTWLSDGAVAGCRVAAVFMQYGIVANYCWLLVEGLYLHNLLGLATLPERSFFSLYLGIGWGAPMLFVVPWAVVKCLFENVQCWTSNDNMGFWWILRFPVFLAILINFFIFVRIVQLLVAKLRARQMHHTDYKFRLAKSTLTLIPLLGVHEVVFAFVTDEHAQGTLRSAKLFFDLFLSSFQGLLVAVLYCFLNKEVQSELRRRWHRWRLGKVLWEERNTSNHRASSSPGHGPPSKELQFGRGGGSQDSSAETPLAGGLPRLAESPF

Turning to `CCCCCCCCCCCC(=O)N[C@@H](CCC(=O)NCCOCCOCC(=O)NCCOCCOCC(=O)NCCCC[C@H](NC(=O)[C@H](CCCN)NC(=O)[C@H](CC(=O)O)NC(=O)[C@H](CC(C)C)NC(=O)[C@](C)(CC(C)C)NC(=O)[C@@H](NC(=O)[C@H](CO)NC(=O)[C@H](CCc1ccc(O)cc1)NC(=O)[C@H](CC(=O)O)NC(=O)[C@H](CO)NC(=O)[C@@H](NC(=O)[C@](C)(Cc1ccccc1F)NC(=O)[C@@H](NC(=O)CNC(=O)[C@H](CCC(=O)O)NC(=O)C(C)(C)NC(=O)[C@@H](N)Cc1ccc(O)cc1)[C@@H](C)O)[C@@H](C)O)[C@@H](C)CC)C(=O)N[C@@H](C)C(=O)N[C@@H](CCC(N)=O)C(=O)NC(C)(C)C(=O)N[C@@H](CCCCNC(=O)COCCOCCNC(=O)COCCOCCNC(=O)CC[C@H](NC(=O)CCCCCCCCCCC)C(=O)O)C(=O)N[C@@H](Cc1ccccc1)C(=O)N[C@H](C(=O)N[C@H](CCC(=O)O)C(=O)N[C@@](C)(Cc1ccc(O)cc1)C(=O)N[C@@H](CC(C)C)C(=O)N[C@H](C(=O)N[C@@H](CCC(=O)O)C(=O)NCC(=O)NCC(=O)N1CCC[C@H]1C(=O)N[C@@H](CO)C(=O)N[C@@H](CO)C(=O)NCC(=O)N[C@@H](C)C(=O)N1CCC[C@H]1C(=O)N1CCC[C@H]1C(=O)N1CCC[C@H]1C(=O)N[C@@H](CO)C(N)=O)[C@@H](C)CC)[C@@H](C)CC)C(=O)O` [Example 323], the Emax at hGIPR (setting [1]) stood at 92.9%; at hGLP-1R (setting [2]) it was 92.6%. The figures for the EC50 at hGLP-1R, on hGCGR (setting [3]) and on hGCGR (setting [4]) were 0.203 nM, > 9950 nM and > 9950 nM, respectively.
As for `CC[C@H](C)[C@H](NC(=O)[C@H](CC(C)C)NC(=O)[C@](C)(Cc1ccc(O)cc1)NC(=O)[C@@H](CCC(=O)O)NC(=O)[C@@H](NC(=O)[C@H](Cc1ccccc1)NC(=O)[C@H](CCCCNC(=O)COCCOCCNC(=O)COCCOCCNC(=O)CCCCCCCCCCCCC(=O)O)NC(=O)C(C)(C)NC(=O)[C@H](CCC(N)=O)NC(=O)[C@H](C)NC(=O)[C@H](CCCCNC(=O)COCCOCCNC(=O)COCCOCCNC(=O)CCCCCCCCCCCCC(=O)O)NC(=O)[C@H](CCCN)NC(=O)[C@H](CC(=O)O)NC(=O)[C@H](CC(C)C)NC(=O)[C@](C)(CC(C)C)NC(=O)[C@@H](NC(=O)C(C)(C)NC(=O)[C@H](Cc1ccc(O)cc1)NC(=O)[C@H](CC(=O)O)NC(=O)[C@H](CO)NC(=O)[C@@H](NC(=O)[C@](C)(Cc1ccccc1F)NC(=O)[C@@H](NC(=O)CNC(=O)[C@H](CCC(=O)O)NC(=O)C(C)(C)NC(=O)[C@@H](N)Cc1ccc(O)cc1)[C@@H](C)O)[C@@H](C)O)[C@@H](C)CC)[C@@H](C)CC)C(=O)N[C@@H](CCC(=O)O)C(=O)NCC(=O)NCC(=O)N1CCC[C@H]1C(=O)N[C@@H](CO)C(=O)N[C@@H](CO)C(=O)NCC(=O)N[C@@H](C)C(=O)N1CCC[C@H]1C(=O)N1CCC[C@H]1C(=O)N1CCC[C@H]1C(=O)N[C@@H](CO)C(N)=O` [Example 385], the Emax turned out to be 83.5% at hGIPR (setting [1]), 95.2% on hGIPR (setting [2]), 112% on hGLP-1R (setting [1]) and 100% on hGLP-1R (setting [2]). In addition, the EC50 on hGIPR (cAMP, 0.1% bovine casein (no human serum albumin), geometric mean, read-out: hGIPR EC50, nM (SEM, n)) is 0.0154 nM; at hGLP-1R it was 0.189 nM; on hGCGR (setting [3]), > 9950 nM; at hGCGR (setting [4]), > 9950 nM.
